Results taken from a melting point compilation (Tetko et al.).

melting point [°C]	Structure (SMILES)
144 to 146	CC(=O)Nc1ccccc1CC(=O)O
196 to 198	CC(=O)NCc1ccc(C(=O)N2CCCC2C(=O)O)cc1 (stereo not given)
75 to 77	N#CCc1cc(F)cc2c1OCOC2
103 to 105	CS(=O)(=O)CC(O)c1ccccc1 (stereo not given)
79 to 81	Brc1nnc(Cc2ccccc2)s1
121 to 123	COc1cc(N)ccc1NC(C)=O
91 to 93	CCOC(=O)c1ccc2c(c1)nc(CCl)n2CC
99 to 101	NN=C(Nc1ccccc1)c1cc(F)cc(F)c1
39 to 41	C#Cc1nc2ccccc2s1
297 to 299	O=C(O)c1ccc(CS(=O)(=O)c2ccccc2)cc1
152 to 154	Sc1nc(-c2cc3ccccc3o2)no1
161 to 163	CC(=O)c1ccc(NC(=O)NC2CC2)cc1
184 to 186	CC(C)c1nnc(N)o1
144 to 146	CNC(=O)C1(C(=O)O)CCC1
134 to 136	Cc1ccc(CNC(=O)C2CCNCC2)cc1F
276 to 278	CNC(C(=O)O)c1ccc(F)cc1 (stereo not given)
209 to 211	O=C(CBr)c1c[nH]c2ncccc12
64 to 66	CCN(CC)Cc1csc(N)n1
104 to 107	ClCc1nnc(-c2ccccc2Br)o1
65 to 67	O=C(O)COC1CCOCC1
71 to 73	Cc1ccc(C(=O)c2cccnc2)cc1
98 to 100	NCc1nnc(-c2cccc(Br)c2)o1
139 to 141	NS(=O)(=O)c1ccc(F)c(C(=O)O)c1F

melting point [°C]	Structure (SMILES)
210 to 212	O=C(O)C1(C(F)(F)F)CCN(Cc2ccccc2)C1 (stereo not given)
224 to 226	CCOc1ccccc1-c1cc(C(=O)O)n[nH]1
249 to 251	NC(=O)c1[nH]cnc1N
327 to 329	O=C1NC(=O)C2(CCS(=O)(=O)CC2)N1
259 to 261	O=C(O)c1ccc(N2CCCC2)c([N+](=O)[O-])c1
209 to 211	Cc1oc(S(N)(=O)=O)cc1C(=O)O
144 to 146	Cc1cc(Br)ccc1NS(C)(=O)=O
94 to 96	CCc1c(-c2ccc(Br)cc2)n[nH]c1N
227 to 229	O=C(O)CCc1cc2ccccc2[nH]c1=O
197 to 199	Cn1ccnc1-c1noc(N)n1
175 to 177	Cc1ccc2nc(NCc3ccccc3)sc2c1
102 to 104	CC(=O)CCc1ccc(OCCC(=O)O)cc1
81 to 83	O=[N+]([O-])c1ccc(CO)c(Br)c1
204 to 206	CC(=O)Nc1c(C)cccc1C(=O)O
152 to 154	COC(=O)C(Cc1c[nH]cn1)NC(=O)CCc1ccccc1 (stereo not given)
142 to 144	O=C(O)c1ccc(O)c(-c2ccccc2)c1
144 to 146	CC(C)(C(=O)NO)c1ccccc1
283 to 285	COc1ccc(C(=O)O)cc1S(N)(=O)=O
140 to 142	O=C(O)c1c(Cl)cc(C(F)(F)F)cc1Cl
113 to 115	CN(C)c1ccnc(N)c1
120 to 122	COc1ccc(NC(=O)CCCl)cc1
108 to 110	CC(C)c1nc(N)n(C)n1
224 to 226	CN(C)c1ccc(C=C(C#N)C(=O)O)cc1

melting point [°C]	Structure (SMILES)
66 to 68	Nc1nc(C(F)(F)F)cs1
233 to 235	O=C(O)C1CNCc2ccccc21 (stereo not given)
129 to 131	NCC(O)COc1ccc(I)cc1 (stereo not given)
179 to 181	O=C(O)c1ccc(-n2cnnn2)cc1Cl
72 to 74	C=CCn1cnc(-c2ccccc2)c1N
153 to 155	COc1ccccc1N(C)S(=O)(=O)c1ccc(C)c(C(=O)O)c1
107 to 109	C#CCNC(=O)c1cccnc1Cl
121 to 123	CN(C)C(=O)c1cccc(S(N)(=O)=O)c1
41 to 43	CCN(C)c1ccc(C(C)=O)cc1
45 to 47	O=S(=O)(Cl)c1ccc(Cl)cc1C(F)(F)F
220 to 222	COc1cc(C=C2CC(C(C)(C)C)Cc3c2nc2ccccc2c3C(=O)O)cc(OC)c1OC (stereo not given)
114 to 116	Nc1cc(-c2c(F)cccc2F)no1
77 to 79	COc1ccc(C(=O)C(F)(F)F)cc1OC
104 to 106	COc1ccccc1OCC(=O)Nc1cccc(N)c1
144 to 146	Nc1nc(-c2cc(Cl)sc2Cl)cs1
133 to 135	O=C1NC(=O)C(CCS)N1 (stereo not given)
170 to 172	Cc1ccc(NC(N)=O)cc1C
179 to 181	OCc1nc2cc(Br)ccc2[nH]1
83 to 85	O=C(CBr)c1cccc(N2CCCC2=O)c1
224 to 226	Cc1cc(C(=O)O)c2c(CC(C)(C)C)noc2n1
113 to 115	CN1CCN(C(=O)C2CCc3ccccc3N2)CC1 (stereo not given)
239 to 241	COc1cccc2c1OCC(C(=O)O)=C2
172 to 174	Cc1nsc(Nc2ccccc2)c1C#N

melting point [°C]	Structure (SMILES)
163 to 165	Cc1cnn(Cc2cc(C(=O)O)no2)c1
191 to 193	O=C(O)C1CCN(S(=O)(=O)Cc2ccccc2)CC1
53 to 55	Cc1ccc(-c2ccc(C=O)o2)cc1
79 to 81	CSc1cc(N)ccn1
174 to 176	N#Cc1ccc(N2CCC(C(=O)O)CC2)nc1
162 to 164	Cc1cc(O)c(C(=O)O)cc1S(=O)(=O)Cl
279 to 281	Cc1ccc(Nc2cccc(C(=O)O)c2)nn1
316 to 318	NC(=O)c1ccc(=O)[nH]c1
234 to 236	COc1ccc(-c2cc(C(=O)O)c3ccccc3n2)cc1OC
219 to 221	Cc1nn(-c2ccc(F)cc2)c(C)c1C(=O)O
154 to 158	N#CCCn1c(S)nc2ccccc21
280 to 282	Sc1nc(-c2ccccc2)c(-c2ccccc2)n1Cc1ccccc1
34 to 36	O=S(CCCl)c1ccccc1 (stereo not given)
171 to 173	CCNc1nc(C)c(C(=O)O)s1
155 to 157	Cc1ccc(C)n1-c1cn[nH]c1
225 to 227	O=C(O)/C=C/c1csc2ccccc12
169 to 171	COc1ccccc1C(N)C(=O)O (stereo not given)
255 to 257	CCOc1cccc2[nH]c(C(=O)O)cc12
109 to 111	O=C1C=CC(=O)N1CCc1ccccc1
152 to 154	CC(C)(C)c1c(C(=O)O)nnn1-c1ccc(Cl)cc1F
124 to 126	CCc1nc(NC(=O)CCl)sc1C
179 to 181	Cc1cc(=O)oc2cc(OCC(=O)NN)ccc12
88 to 90	COC(=O)c1cc2ccc(F)cc2s1

melting point [°C]	Structure (SMILES)
74 to 78	CCOc1cc2c(cc1C=O)OC(C)C2 (stereo not given)
136 to 138	O=C(O)c1noc(-c2cc(F)cc(F)c2)n1
232 to 234	O=C(O)C1CCN(S(=O)(=O)c2cccc3c2N=S=N3)CC1
71 to 73	CNc1sccc1C#N
147 to 149	Cc1cc([N+](=O)[O-])ccc1NC(=O)CCCl
135 to 137	Nc1ccc(Oc2ccnc3ccccc23)cc1
155 to 157	Cn1c(-c2ccccc2)c(C(=O)CC#N)c2ccccc21
239 to 241	Cn1nc(Br)c(C(=O)NCC(=O)O)c1N
129 to 131	Nc1[nH]ncc1-c1ccccc1Br
107 to 109	CC(Cl)C(=O)Nc1ccc(Cl)cc1C(F)(F)F (stereo not given)
228 to 230	O=C(O)c1ccc(CNC(=O)C2CCCC2)cc1
197 to 199	N#Cc1ccc(CS(=O)(=O)CC(=O)O)cc1
124 to 126	Nc1cccc(-c2ccc3ccccc3c2)n1
169 to 171	O=C(O)CC1(C(=O)O)CCN(C(=O)OCc2ccccc2)C1 (stereo not given)
232 to 234	O=C(O)c1nn(-c2ccccc2Cl)c2c1CCCC2
112 to 114	C1CCC(NC2=NCCCS2)CC1
80 to 82	O=Cc1csc(-c2cccs2)n1
82 to 84	CN(CCO)c1ccc(N)nc1
177 to 179	O=C(O)c1ccc(OCCO)cc1
229 to 231	O=c1[nH]nc2cnccn12
72 to 74	COC(=O)c1cc([N+](=O)[O-])cc(C)c1C
79 to 81	N#CCOc1cccc(CC(=O)O)c1
210 to 212	Cn1cc(C(=O)O)c(C(F)(F)F)n1

melting point [°C]	Structure (SMILES)
219 to 221	O=C(O)c1ccc(Br)c(O)c1
229 to 231	O=C(O)c1cc(Br)cc2ccccc12
89 to 91	Nc1nc(CCCC(=O)O)cs1
73 to 75	O=Cc1ccc(N2CCCCC2)s1
201 to 205	CC1CCCCN1S(=O)(=O)c1ccc(C(=O)O)cc1 (stereo not given)
68 to 70	Clc1cc[nH]n1
169 to 171	N#Cc1ccc(Cn2cnc(N)n2)cc1
124 to 126	CC(C)C(Br)C(=O)Nc1ccc2c(c1)CCC2 (stereo not given)
75 to 77	Cc1c(F)cc(C#N)cc1[N+](=O)[O-]
179 to 181	N=C(N)Nc1nc2ccccc2o1
153 to 155	Nc1ccc(S(=O)(=O)N2CCC(Cc3ccccc3)CC2)cc1
74 to 76	CCC(=O)N1CSCC1C(=O)O (stereo not given)
135 to 137	O=C1CCOc2c(F)cc(F)cc21
134 to 136	COc1ccc(-c2[nH]c3ccccc3c2CCC(=O)O)cc1
56 to 58	NCc1ccn(-c2ccc(F)cc2)n1
142 to 144	Cc1nc(CC(N)=NO)no1
145 to 154	Nc1ccc(S(N)(=O)=O)cc1N
89 to 91	COc1ccc(Br)cc1NCc1ccncc1
115 to 117	COC(=O)c1nonc1N
201 to 203	O=C1CCc2cc([N+](=O)[O-])ccc2N1
61 to 63	COc1ccccc1-c1noc(CCl)n1
171 to 173	CC(C)(C)c1ccc(Oc2ccc(C(=O)O)cc2F)cc1
210 to 214	Cc1ncc([N+](=O)[O-])cc1C(=O)O

Structure (SMILES)	melting point [°C]
NC(C(=O)O)c1ccc(Cl)cc1 (stereo not given)	219 to 221
Cc1cc(C(=O)O)c(C)n1C(C)C	178 to 180
Cc1n[nH]c(C)c1NC(=O)CCl	160 to 162
C#CCNC(=O)CCl	63 to 67
c1ccc2oc(N3CCNCC3)nc2c1	74 to 76
O=[N+]([O-])c1n[nH]cc1Br	193 to 195
c1ccc(CC2CCN(Cc3ccccc3)CC2)cc1	65 to 67
